Laboratory results reported in US20190269801A1 (CEDARS-SINAI MEDICAL CENTER, priority 2016, published 2019).
Like-named read-outs stand apart in the source and are kept apart here.

What was measured:
Resistant C4-2B PC cells = assay: Growth inhibition of AA/EZ resistant C4-2B PC cells cultured as 2D monolayer; assay type: cell-based; settings: Homo sapiens
[1] = test system: PC cell lines (PC3, LNCaP, C4-2, C4-2B, 22Rv1); assay: Viability of immortalized prostate cancer cell lines grown as 2D monolayers; assay type: cell-based, human; settings: 72 hours of drug exposure
Protocol: (§1) Immortalized PC cell lines (PC3, LNCaP, C4-2, C4-2B, 22Rv1) and 3-D spheroid growth of mouse bone marrow-derived LNCaP and C4-2B and ex vivo expanded CTCs from patients were used. […] Induction of apoptosis was assessed by caspase 3/7 luminescent assay. Growth inhibitory effects were compared between 2-D and 3-D. Senescent luciferase-tagged LNCaP and C4-2B cells from mouse bone marrow regained growth potential when propagated in vitro as 3D spheroids. RPMI medium supplemented with 10% FBS and 1% penicillin/streptomycin was used to grow CTCs in vitro.

[2] = test system: ex vivo expanded CTCs from PC patients and LNCaP and C4-2B cells from mouse bone marrow, 3-D spheroids; assay: Viability/apoptosis of PC CTCs and bone marrow-derived LNCaP and C4-2B grown as 3-D spheroids; assay type: cell-based, human
Protocol: as §1

Naive C4-2B PC cells = assay: Growth inhibition of naive C4-2B PC cells cultured as 2D monolayer; settings: for IC50: Homo sapiens
microtubule = assay: Microtubule dynamics in PC cells; assay type: cell-based
Protocol: Microtubule dynamics are measured in NIR-SM or SM treated PC cells in the presence or absence of DT according to published protocols. Microtubule dynamics are assessed by fluorescence imaging methods, where immunolabeled tubulin is the readout for measurements of polarized forced generation, contractility and response to substrate stiffness measured in the presence of DT using established protocols. […] We test other agents, such as nocodazole and vincristine, which without being bound by theory we hypothesize block the polymerization of tubulin into microtubules, and cold temperature that can cause a rapid depolymerization of microtubules. With these controls, we determine if NIR-SM or SM may differ in enhancing the activity of DT in promoting microtubule polymerization in PC cells.

[3] = test system: renal (ACHN, o-786, SKRC, Caki-1), breast (MCF-7), lung (H358), liver (HepG2), prostate (PC3, LNCaP, C4-2B), pancreatic (MIAPaCa II) and glioblastoma (U87) …; assay: Cell inhibition by NIR-783 dye in a cancer cell line panel; assay type: cell-based; settings: in vitro
human PC cell lines = assay: IC50 in commonly used human PC cell lines; assay type: cell-based
[4] = test system: Ramos, a B-cell lymphoma, 3-D spheroids; assay: Cytotoxicity in Ramos B-cell lymphoma 3-D spheroids; assay type: cell-based
[5] = test system: ex vivo propagated CTCs from human PC patients (3D spheroids)
[6] = test system: PC cells, 3D spheroids vs 2D monolayer; settings: average
[7] = test system: pancreatic and breast cancer CTCs; settings: 3-D spheroids
[8] = test system: Prostate circulating tumor cells CTC 864; settings: 4 μM, 24 hours; vs control, docetaxel 1.25 μM, abiraterone acetate 3.125 μM
PC3 tumor xenograft = settings: PC3 tumors in mouse; listed as dye-simvastatin
PDAC tumors = settings: imaged 3 days after i.p. administration
[9] = test system: ovarian tumor cells OV90 and OVCA433; settings: in vitro
[10] = test system: ex vivo propagated CTCs from human PC patients (3D spheroids); assay: Cytotoxicity in ex vivo propagated prostate cancer CTCs grown as 3D spheroids
[11] = test system: RCC cell lines Caki-1, o-786, ACHN and SK-RC; assay: Growth and viability of RCC cell lines, 72 h exposure (crystal violet); assay type: cell-based, human; settings: range over all RCC cell lines tested
Protocol: (§2) 5,000 cells/well renal cancer cells and 10,000 cells/well lymphoma cells are seeded in 96 well plates in 100 microliter medium/per well for 24 h. […] Renal cancer cells are fixed with 3.7% paraformaldehyde for 15 minutes and are stained with Crystal violet solution (0.5% in 25% methanol) for 30 minutes. After rinsing with water cell layers are dried and decolorized with Sorenson citrate with shaking for 20 minutes. […] Lymphoma cell growth was evaluated using MTT and cells are incubated for 4 hours.
Apoptosis was assessed by caspase 3/7 luminescent assay. Cleavage of apoptosis substrates was determined by western blotting. […] Formalin-fixed tumor, liver and kidney sections were stained with H&E and kidney sections were scored semiquantitativey.

[12] = test system: B-cell lymphoma cell lines Namalwa, Raji, CA46, Ramos, Daudi; assay: Growth and viability of B-cell Burkitt's lymphoma cell lines, MTT, 72 h; assay type: cell-based, human; settings: 72 h exposure; range over all BL cell lines tested
Protocol: as §2
(§3) Induction of apoptosis was assessed using a caspase 3/7 luminescent assay. Cleavage of apoptosis substrates and inhibition of c-myc was determined by western blotting, with images quantified by ImageJ after normalization with GAPDH. […] Formalin-fixed tumor and kidney sections were stained with hematoxylin and esosin and kidney sections scored using a semiquantitative scale designed to assess AKI-associated tubular injury (tubular epithelial cell loss, necrosis, tubular epithelial simplification, intratubular debris, and casts).

[13] = test system: Namalwa and Raji cell lines; assay: Apoptosis by caspase 3/7 luminescent assay and western blot in BL cell lines; assay type: cell-based, human; settings: 24 hours of drug exposure, 8, 16, 32 μM
Protocol: Namalwa cells are cultured in RPMI 1640, 10% fetal bovine serum, 1% PenStrep, and placed in a humidified atmosphere containing 5% CO2 at 37° C. 10,000-15,000 cells/well are seeded in 96 white wall well plates in 100 microliter medium/per well for 24 h. […] 100 microliters of Caspase-Glo 3/7 assay is added and luminescence is then read. Caki-1 cells are cultured in RPMI 1640, 10% fetal bovine serum, 1% PenStrep, and placed in a humidified atmosphere containing 5% CO2 at 37° C. 5,000 cells/well are seeded in 96 white wall well plates in 100 microliter medium/per well for 24 h. […] 100 microliters of Caspase-Glo 3/7 assay is added and luminescence is then read.

bcl-2 = bcl-2 western blot in BL cell lines; assay type: cell-based, human
c-myc = c-myc western blot in BL cell lines; assay type: cell-based, human
Namalwa tumors = assay: Namalwa xenograft growth in mice; assay type: in vivo, mouse; settings: equimolar doses i.p. 3 times a week
mouse kidneys = assay: Kidney histopathology, AKI-associated tubular injury score, Namalwa-bearing mice; settings: i.p. 3 times a week for 4 weeks
Protocol: FIG. 27 depicts in accordance with various embodiments of the invention, formalin-fixed kidney sections are stained with hematoxylin and esosin and scored using a semiquantitative scale designed to assess AKI-associated tubular injury (tubular epithelial cell loss, necrosis, tubular epithelial simplification, intratubular debris, and casts).
as §3

Compound: CC(=O)O[C@H]1CC[C@@]2(C)C(=CC[C@@H]3[C@@H]2CC[C@]2(C)C(c4cccnc4)=CC[C@@H]32)C1 [AA, abiraterone acetate]
- IC50 (Resistant C4-2B PC cells; NIR-SM 0 μM): 13.3 µM
- IC50 (Resistant C4-2B PC cells; NIR-SM 0.25 μM): 3.32 µM
- sensitivity of cells grown as 2D monolayers [1]: sensitive
- sensitivity of cells grown as 3-D spheroids [2]: resistance with no signs of apoptosis
- IC50 (Naive C4-2B PC cells; read-out: AA IC50, Naive C4-2B, 2D monolayer, NIR-SM 0 μM): 6.79 µM
- IC50 (Naive C4-2B PC cells; read-out: AA IC50, Naive C4-2B, 2D monolayer, NIR-SM 0.25 μM): 1.65 µM

Compound: CC(=O)O[C@@]12CO[C@@H]1C[C@H](O)[C@@]1(C)C(=O)[C@H](O)C3=C(C)[C@@H](OC(=O)[C@H](O)[C@@H](NC(=O)OC(C)(C)C)c4ccccc4)C[C@@](O)([C@@H](OC(=O)c4ccccc4)[C@H]21)C3(C)C [DT, docetaxel]
- sensitivity of cells grown as 2D monolayers [1]: sensitive
- sensitivity of cells grown as 3-D spheroids [2]: resistance with no signs of apoptosis
- effect on microtubules (microtubule): enhances microtubule polarization and inhibits shrinkage of microtubule length

Compound: CNC(=O)c1ccc(N2C(=S)N(c3ccc(C#N)c(C(F)(F)F)c3)C(=O)C2(C)C)cc1F [EZ, enzalutamide]
- sensitivity of cells grown as 2D monolayers [1]: sensitive
- sensitivity of cells grown as 3-D spheroids [2]: resistance with no signs of apoptosis

Compound: CC1(C)C(=CC=C2CCCC(C=CC3=[N+](CCCCS(=O)(=O)[O-])c4ccccc4C3(C)C)=C2Cl)N(CCCCS(=O)(=O)[O-])c2ccccc21.[Na+] [NIR-783]
- cell inhibition effect [3]: does not exhibit significant cell inhibition effect

Compound: CCC(C)(C)C(=O)O[C@H]1C[C@@H](C)C=C2C=C[C@H](C)[C@H](CC[C@@H]3C[C@@H](OC(=O)CCCCCN4/C(=C/C=C5\CCCC(/C=C/C6=[N+](CCCCS(=O)(=O)[O-])c7ccccc7C6(C)C)=C5Cl)C(C)(C)c5ccccc54)CC(=O)O3)[C@H]21 [NIR-SM, DZ-1-Simvastatin Conjugate]
- effect on the growth of PC cells (human PC cell lines; 0.25 μM): marginal effects
- potency relative to unconjugated simvastatin [4]: about 5 fold
- synergized cisplatin cytotoxicity [4]: over 190 fold
- IC50 [5]: 5 µM
- enhancement of the cytotoxicity exerted by AA, EZ or DT [5]: 21-122 fold
- accumulation in PC 3D spheroids higher than in PC 2D monolayer [6]: 5 fold
- synergy with enzalutamide (Enz) and abiraterone acetate (Abi) growth inhibition (C4-2B cells): synergizes the growth inhibitory effects of anti-androgens
- synergy with docetaxel growth inhibition (C4-2B cells; conjugate at 2 uM): synergizes the growth inhibitory effects of docetaxel
- effectiveness relative to unconjugated simvastatin [7]: more effective than unconjugated simvastatin
- rate of apoptosis (caspase 3/7) [8]: significantly higher rate of apoptosis
- accumulation in tumor (PC3 tumor xenograft): selective accumulation
- tumor targeting (PDAC tumors): targets specifically PDAC tumors
- sensitivity of cell growth relative to unconjugated drug [9]: more sensitive
- sensitization of the cytotoxic effects of AA and EZ (Naive C4-2B PC cells; NIR-SM 0.25 μM, both control and AA/EZ resistant PC cells in the C4-2B background): 4-5 fold
- IC50 lower than SM [10]: about 4 fold
- effectiveness relative to unconjugated simvastatin [10]: more effective than unconjugated simvastatin

Compound: CCC(C)(C)C(=O)O[C@H]1C[C@@H](C)C=C2C=C[C@H](C)[C@H](CC[C@@H]3C[C@@H](O)CC(=O)O3)[C@H]21 [SM, Simvastatin, reference compound]
- IC50 (human PC cell lines; Homo sapiens, range over cell lines, dependent upon the cell types): 1 to 7 µM
- IC50 ([10]; ex vivo propagated CTCs): 20 µM

Compound: N.N.[Cl][Pt][Cl] [cisplatin, reference compound]
- IC50 [11]: > 64 µM
- IC50 [12]: > 64 µM
- induction of apoptosis (caspase 3/7; caspase 9, caspase 3 and PARP) ([13]; listed as Cis): no sign of increased apoptotic activity
- bcl-2 expression (bcl-2): no significant changes

Compound: Nc1ccn([C@@H]2O[C@H](CO)[C@@H](O)C2(F)F)c(=O)n1 [gemcitabine]
- sensitivity of cells grown as 2D monolayers [1]: sensitive

Compound: DZ-1-cisplatin [NIR dye-cisplatin]
- induction of apoptosis (caspase 3/7; caspase 9, caspase 3 and PARP) [13]: induces apoptosis
- c-myc expression (c-myc): downregulates
- bcl-2 expression (bcl-2): no significant changes
- tumor growth inhibition (Namalwa tumors): tumor growth inhibition and apoptotic nuclear lobulation/fragmentation
- kidney toxicity (histopathology) (mouse kidneys): preserved the integrity and normal morphology of mouse kidneys
